Data taken from ChEMBL document CHEMBL1697781, “Assessment of the health effects of chemicals in humans: II. Construction of an adverse effects database for QSAR modeling” (Curr Drug Discov Technol, 2004).

How the values were obtained:
Settings in all cases: human; call rule not given here
[1] = tested on: Hepatotoxicity; test: FDA HLAED, liver enzyme composite activity
[2] = tested on: Hepatotoxicity; test: FDA HLAED, alkaline phosphatase increase
[3] = tested on: Hepatotoxicity; test: FDA HLAED, serum glutamic oxaloacetic transaminase (SGOT) increase
[4] = tested on: Hepatotoxicity; test: FDA HLAED, serum glutamic pyruvic transaminase (SGPT) increase
[5] = tested on: Hepatotoxicity; test: FDA HLAED, lactate dehydrogenase (LDH) increase
[6] = tested on: Hepatotoxicity; test: FDA HLAED, gamma-glutamyl transferase (GGT) increase
Throughout, for GGT Increase - Index Value: reference of the scale not given here.
Throughout, for LDH Increase - Index Value: reference of the scale not given here.

| Structure (SMILES) | Composite Activity - Active [1] | Composite Activity - Marginal [1] | Composite Activity - Score [1] | Alkaline Phosphatase Increase - Activity Score [2] | Alkaline Phosphatase Increase - Index Value [2] | Alkaline Phosphatase Increase - Number of Reports [2] | SGOT Increase - Activity Score [3] | SGOT Increase - Index Value [3] | SGOT Increase - Number of Reports [3] | SGPT Increase - Activity Score [4] | SGPT Increase - Index Value [4] | SGPT Increase - Number of Reports [4] | LDH Increase - Activity Score [5] | LDH Increase - Index Value [5] | LDH Increase - Number of Reports [5] | GGT Increase - Activity Score [6] | GGT Increase - Index Value [6] | GGT Increase - Number of Reports [6] | also measured |
| --- | --- | --- | --- | --- | --- | --- | --- | --- | --- | --- | --- | --- | --- | --- | --- | --- | --- | --- | --- |
| CC(C)NCC(O)COc1ccc(COCCOC(C)C)cc1 (stereo not drawn) [BISOPROLOL] | 1 | 0 | Inactive | Inactive | 3.1 | < 4 | Inactive | 0 | < 4 | Inactive | 3.1 | < 4 | Inactive | 0 | < 4 | Active | 12.3 | < 4 |  |
| Cc1ccc(C(=O)Oc2ccc(C(O)CNC(C)(C)C)cc2OC(=O)c2ccc(C)cc2)cc1 (stereo not drawn) [BITOLTEROL] | 0 | 0 | Inactive | Inactive | 0 | < 4 | Inactive | 0 | < 4 | Inactive | 0 | < 4 | Inactive | 0 | < 4 | Inactive | 0 | < 4 |  |
| CC[N+](C)(C)Cc1ccccc1Br.Cc1ccc(S(=O)(=O)[O-])cc1 [BRETYLIUM TOSYLATE] | 0 | 0 | Inactive | Inactive | 0 | < 4 | Inactive | 0 | < 4 | Inactive | 0 | < 4 | Inactive | 0 | < 4 | Inactive | 0 | < 4 |  |
| Brc1c(NC2=NCCN2)ccc2nccnc12 [BRIMONIDINE] |  |  |  | Inactive | 0 | < 4 | Inactive | 1.1 | < 4 | Inactive | 0 | < 4 | Inactive | 0 | < 4 | Inactive | 0 | < 4 | Composite Activity - Active ([1]; Liver): 0; Composite Activity - Marginal ([1]; Liver): 0; Composite Activity - Score ([1]; Liver): Inactive |
| CC(C)C[C@H]1C(=O)N2CCC[C@H]2[C@]2(O)O[C@](NC(=O)[C@@H]3C=C4c5cccc6[nH]c(Br)c(c56)C[C@H]4N(C)C3)(C(C)C)C(=O)N12 [BROMOCRIPTINE] | 0 | 0 | Inactive | Inactive | 0 | < 4 | Inactive | 0 | < 4 | Inactive | 0 | < 4 | Inactive | 0 | < 4 | Inactive | 0 | < 4 |  |
| CCCC1O[C@@H]2C[C@H]3[C@@H]4CCC5=CC(=O)C=C[C@]5(C)[C@H]4[C@@H](O)C[C@]3(C)[C@]2(C(=O)CO)O1 (stereo partly drawn) [BUDESONIDE] | 0 | 0 | Inactive | Inactive | 0.2 | < 4 | Inactive | 0 | < 4 | Inactive | 0 | < 4 | Inactive | 0 | < 4 | Inactive | 0 | < 4 |  |
